We go through four molecules from US20100008976A1, “Medical Use of N-Phenylpropenoyl-Amino Acid Derivatives and Related Compounds” (Westfallsche Wilheims Universitat Munster, priority 2006, published 2010).

The subject of one series is HepG2 cell line. As to the kind of experiment: Extracytosolic LDH cytotoxicity assay in HepG2 cells. Type of series: cell-based, human. Conditions: HepG2, 100 and 10 μg/ml. Here is the method:
(§1) The HepG2 cell line, clone H20, was received from Prof. Mersch-Sundermann, Giessen University, and cultured as described in [2]. The cells were cultured in low glucose (1 g/l) Dulbecco's modified Eagle's medium (DMEM) with L-glutamine and 25 mM Hepes, which was mixed with 15% (v/v) heat-inactivated fetal calf serum (FCS) and gentamycin (30 μg/ml), in a moist atmosphere at 37+/−0.5° C., 5% CO2. The cells were trypsinized, washed with PBS (pH 7.4), gently centrifuged and then a cell suspension in a cell medium was prepared by forcing the sediment through a needle. The medium was changed every three to five days. The compounds Nos. 5 and 8 to be tested were dissolved in a concentration of 1 mg/ml in HepG2 medium, to which the serum-free supplement SerEx was added instead of FCS, and filtered through a 0.2 μm cellulose acetate filter.
The cells were seeded in 96-well microtiter plates (1×10^4 cells/well). After 24 h, the medium was removed and the cells were exposed to the compounds to be tested, in concentrations of 100 and 10 μg/ml, for 48 h. The cell metabolic activity was quantified as 2.5 mg/ml MTT in accordance with. The extracytosolic LDH [4] was quantified with a cytotoxicity assay.

Series [1] deals with Human primary keratinocytes (NHK). In words: LDH assay for necrotic effects in human keratinocytes. Type of series: cell-based. Here is the method: (§2) Human primary keratinocytes (NHK) were isolated from human skin obtained by surgical resection of Caucasian patients. In vitro tests relating to the mitochondrial activity, the BrdU incorporation and for necrotic effects by means of an LDH assay were carried out.
(§3) The investigations were carried out with cells of the 2nd to 6th passage. Both compound No. 5 and compound No. 8 increased in a concentration of 10 μg/ml both the mitochondrial activity and the proliferation (FIG. 3).

For series [2] the test system is unchanged. As to the kind of experiment: BrdU incorporation proliferation in human keratinocytes. Type of series: cell-based. Conditions: 10 μg/ml. Here is the method: as §2, §3
(§4) FIG. 3: Influence of compounds No. 5 and No. 8 (10 μg/ml) on the mitochondrial activity (A) and the mitotic proliferation (B) of HaCaT keratinocytes after incubation for 60 hours.
(§5) The measurement plotted in FIG. 3A is the relative mitochondrial dehydrogenase activity (untreated control=100%) and in FIG. 3 b is the relative mitochondrial proliferation rate (untreated control=100%).
(§6) The mitochondrial activity was investigated using the MTT assay, and the proliferation by BrdU-incorporation ELISA. The bars represent the standard errors with n=10. Negative control: untreated cells, positive control: fibroblast growth factor FGF.
In general terms: Incorporation of labelled thymidine or its analogues reports DNA synthesis.

In series [3] the test system is human liver cells (HEPG2). In words: MTT cell metabolic (mitochondrial) activity in HepG2 liver cells. Type of series: cell-based. As to conditions: for mitochondrial activity: HepG2, 10 and 100 μg/ml, incubation for 48 hours, MTT; for energy status: HepG2, shortened incubation time of 24 hours. The protocol:
as §1
The cells were seeded in 96-well microtiter plates (1×10^4 cells/well). […] The cell metabolic activity was quantified as 2.5 mg/ml MTT in accordance with. The extracytosolic LDH [4] was quantified with a cytotoxicity assay.
FIG. 2: Influence of compounds No. 5 and No. 8 (10 and 100 μg/ml) on the mitochondrial activity of human liver cells (HEPG2) after incubation for 48 hours.
The measurement plotted in FIG. 2 is the relative mitochondrial dehydrogenase activity (untreated control=100%). The bars represent the means of a representative experiment with n=10.

The next series deals with Helicobacter pylori. In words: Adhesion of FITC-labeled Helicobacter pylori to human gastric mucosa. Type of series: cell-based. As to conditions: for adhesion score / fluorescence intensity: FITC-labeled H. pylori on human gastric mucosa; for adhesion score: 1 mg/ml; for antiadhesive effect on Helicobacter pylori: bacteria incubated with compound 1 mg/ml, stomach tissue; for fluorescence intensity: untreated bacteria standardized to 100%. Here is the method: Adhesion tests were carried out in accordance with. This entailed FITC-labeled bacteria being incubated with the compounds to be tested (1 mg/ml). Deparaffinized pieces of stomach tissue were incubated with the bacteria. Microorganisms which adhere to the epithelium were counted under a fluorescence microscope and compared with an untreated control.
The maximum adhesion, as found for example in the untreated control groups (negative control), was assigned a score of +++++, while lower adhesions were assigned scores ++++, +++, ++, + or −, the score found for the positive control (sialyllactose, [7]) being −.
FIG. 4: Fluorescence microscopes (200×) of a representative in situ experiment with FITC-labeled H. pylorion human gastric mucosa: (A) complete adhesion (+++++) of untreated bacteria, fluorescence intensity standardized to 100% (negative control), (B) positive control (−), fluorescence intensity 10% (C) compound No. 5 (++++), fluorescence intensity 78%, (D) compound No. 8 (+) fluorescence intensity 19%.

Series [4] has as its system Human primary keratinocytes (NHK). In words: MTT mitochondrial activity in human keratinocytes. Type of series: cell-based. Conditions: 10 μg/ml. The protocol: as §2, §3, §4, §5, §6

Turning to `O=C(/C=C/c1ccc(O)c(O)c1)N[C@@H](Cc1c[nH]c2ccccc12)C(=O)O` [Compound 5, (+)-N-[3′,4′-dihydroxy-(E)-cinnamoyl]-L-tryptophan], the “necrotic cytotoxicity (LDH)” value in the series with HepG2 cell line is “no necrotic cytotoxicity was detectable”. In addition, the cytotoxicity entry in series [1] is “No cytotoxicity was detected”. The proliferation result in series [2] is listed as “increased”. Moreover, in series [3], the mitochondrial activity result was “increased” and the energy status entry is listed as “no effect”. Besides, in the series on Helicobacter pylori, the adhesion score result is on record as “++++”, the “antiadhesive effect on Helicobacter pylori” value (“antiadhesive effect” for short) is “no effect” and the fluorescence intensity was found to be 78%. In addition, the mitochondrial activity result in series [4] is “increased”.

Consider sialyllactose [reference compound], for which, in the series on Helicobacter pylori, the adhesion score result is “−” and the fluorescence intensity was 10%.

On to `O=C(/C=C/c1ccc(O)c(O)c1)N[C@@H](Cc1ccc(O)c(O)c1)C(=O)O` [Compound 11, (−)-N-[3′,4′-dihydroxy-(E)-cinnamoyl]-3-hydroxy-L-tyrosine], for which the proliferation result in series [2] is recorded as “none of the effects described”. Also, the mitochondrial activity result in series [3] and in series [4] was “none of the effects described” in each case. Also, the “antiadhesive effect” value in the series on Helicobacter pylori is “none of the effects described”.

Consider `O=C(O)C[C@H](NC(=O)/C=C/c1ccc(O)c(O)c1)C(=O)O` [Compound 8, (+)-N-[3′,4′-dihydroxy-(E)-cinnamoyl]-L-aspartic acid], for which, in the series with HepG2 cell line, the “necrotic cytotoxicity (LDH)” value is reported as “no necrotic cytotoxicity was detectable”. Besides, the cytotoxicity result in series [1] is listed as “No cytotoxicity was detected”. The proliferation result in series [2] was “increased”. In series [3], the mitochondrial activity entry was “increased” and the energy status entry is “significantly increased”. In the series with Helicobacter pylori, the adhesion score entry is on record as “+”, the “antiadhesive effect” value is “almost complete suppression of adhesion” and the fluorescence intensity is reported as 19%. For the same molecule, the mitochondrial activity result in series [4] is “increased”.
